Reference: US9375002B2, “5-aminopyrimidine derivatives and use thereof for combating undesired plant growth” (BAYER INTELLECTUAL PROPERTY GMBH, priority 2012, dated 2016)

Legend:
Format in all cases: in vivo
Echinochloa crus-galli [1] = test: Post-emergence herbicidal effect; conditions: 1280 g/ha, visual rating after about 3 weeks
Experimental: (§1) AMARE: Amaranthus retroflexus ECHCG: Echinochloa crus-galli 2. Post-Emergence Herbicidal Effect and Crop Plant Compatibility Seeds of monocotyledonous and dicotyledonous weed and crop plants are placed in sandy loam in wood-fiber pots, covered with soil and cultivated in a greenhouse under good growth conditions. 2 to 3 weeks after sowing, the test plants are treated at the one-leaf stage. The compounds according to the invention, formulated in the form of wettable powders (WP) or as emulsion concentrates (EC), are then sprayed as aqueous suspension or emulsion at a water application rate of 600 to 800 I/ha (converted) with the addition of 0.2% of wetting agent onto the green parts of the plants. After the test plants have been kept in the greenhouse under optimum growth conditions for about 3 weeks, the activity of the preparations is rated visually in comparison to untreated controls (herbicidal activity in percent (%): 100% activity=the plants have died, 0% activity=like control plants).

Viola tricolor = test: Pre-emergence herbicidal effect; conditions: 1280 g/ha, visual assessment after 3 weeks
From the text: (§2) 1. Pre-Emergence Herbicidal Effect and Crop Plant Compatibility Seeds of monocotyledonous and dicotyledonous weed plants and crop plants are placed in wood-fiber pots in sandy loam and covered with soil. The inventive compounds, formulated in the form of wettable powders (WP) or as emulsion concentrates (EC), are then applied to the surface of the covering soil as an aqueous suspension or emulsion at a water application rate of 600 to 800 I/ha (converted) with addition of 0.2% wetting agent. After the treatment, the pots are placed in a greenhouse and kept under good growth conditions for the test plants. The damage to the test plants is assessed visually after a test period of 3 weeks by comparison with untreated controls (herbicidal activity in percent (%): 100% action=the plants have died, 0% action=like control plants). VIOTR: Viola tricolor

Matricaria inodora = test: Pre-emergence herbicidal effect; conditions: 1280 g/ha, visual assessment after 3 weeks
From the text: as §2, with “LOLMU: Lolium multiflorum MATIN: Matricaria inodora” for “VIOTR: Viola tricolor”

Lolium multiflorum = test: Pre-emergence herbicidal effect; conditions: 1280 g/ha, visual assessment after 3 weeks
From the text: as §2, with “LOLMU: Lolium multiflorum MATIN: Matricaria inodora” for “VIOTR: Viola tricolor”

Echinochloa crus-galli [2] = test: Pre-emergence herbicidal effect; conditions: 1280 g/ha, visual assessment after 3 weeks
From the text: as §2, with “AMARE: Amaranthus retroflexus ECHCG: Echinochloa crus-galli” for “VIOTR: Viola tricolor”

Amaranthus retroflexus = test: Pre-emergence herbicidal effect; conditions: 1280 g/ha, visual assessment after 3 weeks
From the text: as §2, with “AMARE: Amaranthus retroflexus ECHCG: Echinochloa crus-galli” for “VIOTR: Viola tricolor”

Stellaria media = test: Pre-emergence herbicidal effect; conditions: 1280 g/ha, visual assessment after 3 weeks
From the text: as §2, with “STEME: Stellaria media VERPE: Veronica persica” for “VIOTR: Viola tricolor”

Veronica persica = test: Pre-emergence herbicidal effect; conditions: 1280 g/ha, visual assessment after 3 weeks
From the text: as §2, with “STEME: Stellaria media VERPE: Veronica persica” for “VIOTR: Viola tricolor”

Abutilon theophrasti = test: Post-emergence herbicidal effect; conditions: 1280 g/ha, visual rating after about 3 weeks
Experimental: as §1, with “ABUTH: Abutilon theophrasti ALOMY: Alopecurus myosuroides” for “AMARE: Amaranthus retroflexus ECHCG: Echinochloa crus-galli”

Polygonum convolvulus = test: Pre-emergence herbicidal effect; conditions: 1280 g/ha, visual assessment after 3 weeks
From the text: as §2, with “POLCO: Polygonum convolvulus SETVI: Setaria viridis” for “VIOTR: Viola tricolor”

Setaria viridis = test: Pre-emergence herbicidal effect; conditions: 1280 g/ha, visual assessment after 3 weeks
From the text: as §2, with “POLCO: Polygonum convolvulus SETVI: Setaria viridis” for “VIOTR: Viola tricolor”

CCc1ccc2c(c1)C(Nc1cnc(S(C)(=O)=O)nc1)CCO2 (racemic) [compound 65]
herbicidal activity ECHCG (Echinochloa crus-galli [1]): 100%
herbicidal activity VIOTR (Viola tricolor): 100%
herbicidal activity MATIN (Matricaria inodora): 100%
herbicidal activity LOLMU (Lolium multiflorum): 90%
herbicidal activity ECHCG (Echinochloa crus-galli [2]): 100%
herbicidal activity AMARE (Amaranthus retroflexus): 100%
herbicidal activity STEME (Stellaria media): 100%
herbicidal activity VERPE (Veronica persica): 100%
herbicidal activity ABUTH (Abutilon theophrasti): 90%
herbicidal activity POLCO (Polygonum convolvulus): 100%
herbicidal activity SETVI (Setaria viridis): 100%

CCc1ccc2c(c1)C(Nc1cnc(S(C)(=O)=O)nc1C(=O)O)CCO2 (racemic) [compound 68]
herbicidal activity ECHCG (Echinochloa crus-galli [1]): 90%
herbicidal activity VIOTR (Viola tricolor): 100%
herbicidal activity MATIN (Matricaria inodora): 100%
herbicidal activity LOLMU (Lolium multiflorum): 90%
herbicidal activity ECHCG (Echinochloa crus-galli [2]): 100%
herbicidal activity AMARE (Amaranthus retroflexus): 100%
herbicidal activity STEME (Stellaria media): 100%
herbicidal activity VERPE (Veronica persica): 100%
herbicidal activity ABUTH (Abutilon theophrasti): 90%
herbicidal activity POLCO (Polygonum convolvulus): 100%
herbicidal activity SETVI (Setaria viridis): 100%

Cc1ccc2c(c1)[C@H](Nc1cnc(S(C)(=O)=O)nc1)[C@@H](C)C2 [compound 134]
herbicidal activity ECHCG (Echinochloa crus-galli [1]): 90%
herbicidal activity VIOTR (Viola tricolor): 100%
herbicidal activity MATIN (Matricaria inodora): 100%
herbicidal activity LOLMU (Lolium multiflorum): 100%
herbicidal activity ECHCG (Echinochloa crus-galli [2]): 100%
herbicidal activity AMARE (Amaranthus retroflexus): 100%
herbicidal activity STEME (Stellaria media): 100%
herbicidal activity VERPE (Veronica persica): 100%
herbicidal activity ABUTH (Abutilon theophrasti): 90%
herbicidal activity POLCO (Polygonum convolvulus): 100%
herbicidal activity SETVI (Setaria viridis): 100%
